Reference: paper PMC12171880, “Selectivity and Safety Characterization of a Xanthine–Imidazothiazole Lead Structure: a Novel Tryptophan Hydroxylase Inhibitor of Peripheral Serotonin Synthesis” (ACS Pharmacology & Translational Science, 2025)

Assays:
[1] = test system: Sprague–Dawley rats; assay: Dose-range finding study in rats, in-life phase; type: in vivo, rat
Method: The in-life phase of the experiment was performed at Pharmacelsus GmbH (Saarbrücken, Germany) and enrolled 24 Sprague–Dawley rats (12 males and 12 females) provided by Janvier Laboratories (France); the animals were 7 weeks old at delivery. Inclusion criteria (sex, appropriate body weight, and absence of behavioral changes) were established prior to the study’s commencement. The animals were housed in a temperature-controlled room (20–24 °C) and maintained in a 12 h light/12 h dark cycle. Before the start of the study, the animals underwent a six-day acclimation period. Food and water were available ad libitum throughout the duration of the study.
(§1) TPT-004 was formulated in 0.5% (w/v) CMC-Na in water and administered by oral gavage (PO) twice daily (b.i.d.) with a 12 h interval to the treatment groups (3 male and 3 female Sprague–Dawley rats each) for 8 days (15 successive applications). Rats were dosed with 10, 45, and 200 mg/kg, i.e., daily doses of 20, 90, and 400 mg/kg. In addition, a control group was dosed at the same frequency as the vehicle (0.5% CMC-Na).
Blood samples were collected as described below. The animal sacrifice (exsanguination) was performed on day 8. During the necropsy, the selected organs were collected, weighed, and shipped to a third-party laboratory for histopathological examination (as described below).

[2] = test system: brain serotonin turnover; conditions: mice, 1.5 mg/kg BID to 100 mg/kg BID; prior pharmacodynamic studies; cited from earlier work
[3] = test system: Sprague–Dawley rats; assay: Dose-range finding study in rats, clinical chemistry; type: in vivo, rat; conditions: for ALT (GPT) / Albumin / Albumin/ globulin ratio / Alkaline phosphatase / Bile acids / Bilirubin total / Calcium / Chloride / Cholesterol / Creatine kinase / Creatinine / GLDH / Globulin / Glucose / Inorganic phosphate / Potassium / Sodium / Total protein / Triglycerides / Urea (BUN): day 8
Method: as §1
A blood sample of 100 μL was obtained from each rat by puncturing one of the lateral tail veins under short isoflurane anesthesia. Blood was collected in tubes containing lithium heparin and gently mixed. After centrifugation (10 min at 3000g, 4 °C), plasma was separated and stored at −20 °C until LC-MS analysis. In addition, on day 8, the rats were exsanguinated by cardiac puncture under isoflurane anesthesia. A volume of 100 μL of blood (K3-EDTA) was used for immediate cell blood count, while the rest of the blood was mixed with lithium heparin and centrifuged to generate plasma for clinical chemistry analysis.

[4] = test system: mice; conditions: 14 days repeated oral treatment, 10 or 50 mg/kg BID, previous study; cited from earlier work
[5] = molecular target: T1, rat homolog of TH (Rattus norvegicus, UniProt P04177); assay: Eurofins Diversity Panel enzyme assay, rat TH; type: biochemical
T1 construct: Eurofins Cerep (contract screening)
Method: TPT-004 was evaluated at a concentration of 10 μM in a total of 97 binding, enzyme, and uptake assays (Diversity Panel) by Eurofins Cerep (Celle l’Evescault, France). Compound binding was calculated as % inhibition of the binding of a ligand specific to each target. The compound enzyme inhibition effect was calculated as percentage inhibition of the control enzyme activity. Results showing an inhibition (or stimulation for assays run under basal conditions) of >50% are considered to represent significant effects of the test compounds. Results showing an inhibition (or stimulation) between 25% and 50% are indicative of weak to moderate effects. Results showing an inhibition (or stimulation) lower than 25% are not considered significant and are mostly attributable to variability in the signal around the control level. […] In each experiment, and if applicable, the respective reference compound was tested concurrently with TPT-004, and the data were compared with historical values determined at Eurofins. […]
The results are expressed as a percent of control-specific binding: measured specific binding/control specific binding×100 and as a percent inhibition of control-specific binding: 100−(measured specific binding/control specific binding×100) obtained in the presence of TPT-004. […]

[6] = two rodent species; previously published pharmacokinetic data; cited from earlier work
[7] = 10, 45, or 200 mg/kg BID PO, 8 days
[8] = 10, 45 or 200 mg/kg BID PO, D1 to D8

T1 sequence (P04177 whole entry): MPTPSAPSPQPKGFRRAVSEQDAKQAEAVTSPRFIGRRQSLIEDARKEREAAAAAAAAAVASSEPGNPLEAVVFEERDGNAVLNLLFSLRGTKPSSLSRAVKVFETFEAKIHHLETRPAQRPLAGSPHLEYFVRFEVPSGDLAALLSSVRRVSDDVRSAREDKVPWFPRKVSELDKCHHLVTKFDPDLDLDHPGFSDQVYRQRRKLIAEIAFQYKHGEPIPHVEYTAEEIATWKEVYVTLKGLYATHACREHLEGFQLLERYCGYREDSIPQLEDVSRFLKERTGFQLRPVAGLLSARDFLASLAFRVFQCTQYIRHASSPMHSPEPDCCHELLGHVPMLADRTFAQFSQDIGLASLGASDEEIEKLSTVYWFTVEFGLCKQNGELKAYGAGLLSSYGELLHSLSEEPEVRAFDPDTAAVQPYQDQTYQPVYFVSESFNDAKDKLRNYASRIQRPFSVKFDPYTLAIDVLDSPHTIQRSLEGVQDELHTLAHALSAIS

CCn1c(=O)[nH]c(=O)c2c1nc(Cc1cn3cc(C)sc3n1)n2CC1COC1 [TPT-004]
clinical signs [1, 7]: None of the rats exhibited clinical signs | survival [1, 7]: All of the animals survived | body weight [1, 8]: increased normally | food consumption [1, 8]: in the same range as that of the control group | balance of brain serotonin turnover [2]: did not show an altered balance of brain serotonin turnover | ALT (GPT) ([3]; 10 mg/kg PO BID): 49 U/L | Albumin ([3]; 10 mg/kg PO BID): 31 g/L | Albumin/ globulin ratio ([3]; 10 mg/kg PO BID): 1.33 | Alkaline phosphatase ([3]; 10 mg/kg PO BID): 402 U/L | Bile acids ([3]; 10 mg/kg PO BID): 6.3 µmol/L | Bilirubin total ([3]; 10 mg/kg PO BID): 1.7 µmol/L | Calcium ([3]; 10 mg/kg PO BID): 2.6 mmol/L | Chloride ([3]; 10 mg/kg PO BID): 101 mmol/L | Cholesterol ([3]; 10 mg/kg PO BID): 2.25 mmol/L | Creatine kinase ([3]; 10 mg/kg PO BID): 406 U/L | Creatinine ([3]; 10 mg/kg PO BID): 24 µmol/L | GLDH ([3]; 10 mg/kg PO BID): 7 U/L | Globulin ([3]; 10 mg/kg PO BID): 23 g/L | Glucose ([3]; 10 mg/kg PO BID): 11.2 mmol/L | Inorganic phosphate ([3]; 10 mg/kg PO BID): 2.3 mmol/L | Potassium ([3]; 10 mg/kg PO BID): 4.7 mmol/L | Sodium ([3]; 10 mg/kg PO BID): 143 mmol/L | Total protein ([3]; 10 mg/kg PO BID): 54 g/L | Triglycerides ([3]; 10 mg/kg PO BID): 1.2 mmol/L | Urea (BUN) ([3]; 10 mg/kg PO BID): 6.4 mmol/L | ALT (GPT) ([3]; 45 mg/kg PO BID): 52 U/L | Albumin ([3]; 45 mg/kg PO BID): 30 g/L | Albumin/ globulin ratio ([3]; 45 mg/kg PO BID): 1.34 | Alkaline phosphatase ([3]; 45 mg/kg PO BID): 434 U/L | Bile acids ([3]; 45 mg/kg PO BID): 16.6 µmol/L | Bilirubin total ([3]; 45 mg/kg PO BID): 1.7 µmol/L | Calcium ([3]; 45 mg/kg PO BID): 2.7 mmol/L | Chloride ([3]; 45 mg/kg PO BID): 101 mmol/L | Cholesterol ([3]; 45 mg/kg PO BID): 2.5 mmol/L | Creatine kinase ([3]; 45 mg/kg PO BID): 415 U/L | Creatinine ([3]; 45 mg/kg PO BID): 26 µmol/L | GLDH ([3]; 45 mg/kg PO BID): 6 U/L | Globulin ([3]; 45 mg/kg PO BID): 23 g/L | Glucose ([3]; 45 mg/kg PO BID): 12.3 mmol/L | Inorganic phosphate ([3]; 45 mg/kg PO BID): 2.4 mmol/L | Potassium ([3]; 45 mg/kg PO BID): 4.7 mmol/L | Sodium ([3]; 45 mg/kg PO BID): 142 mmol/L | Total protein ([3]; 45 mg/kg PO BID): 53 g/L | Triglycerides ([3]; 45 mg/kg PO BID): 1.7 mmol/L | Urea (BUN) ([3]; 45 mg/kg PO BID): 6.0 mmol/L | ALT (GPT) ([3]; 200 mg/kg PO BID): 67 U/L | Albumin ([3]; 200 mg/kg PO BID): 30 g/L | Albumin/ globulin ratio ([3]; 200 mg/kg PO BID): 1.32 | Alkaline phosphatase ([3]; 200 mg/kg PO BID): 313 U/L | Bile acids ([3]; 200 mg/kg PO BID): 20.4 µmol/L | Bilirubin total ([3]; 200 mg/kg PO BID): 1.7 µmol/L | Calcium ([3]; 200 mg/kg PO BID): 2.6 mmol/L | Chloride ([3]; 200 mg/kg PO BID): 101 mmol/L | Cholesterol ([3]; 200 mg/kg PO BID): 2.6 mmol/L | Creatine kinase ([3]; 200 mg/kg PO BID): 321 U/L | Creatinine ([3]; 200 mg/kg PO BID): 24 µmol/L | GLDH ([3]; 200 mg/kg PO BID): 7 U/L | Globulin ([3]; 200 mg/kg PO BID): 23 g/L | Glucose ([3]; 200 mg/kg PO BID): 13.5 mmol/L | Inorganic phosphate ([3]; 200 mg/kg PO BID): 2.4 mmol/L | Potassium ([3]; 200 mg/kg PO BID): 4.9 mmol/L | Sodium ([3]; 200 mg/kg PO BID): 143 mmol/L | Total protein ([3]; 200 mg/kg PO BID): 53 g/L | Triglycerides ([3]; 200 mg/kg PO BID): 1.4 mmol/L | Urea (BUN) ([3]; 200 mg/kg PO BID): 7.0 mmol/L | clinical chemistry parameters, overall [3, 7]: no relevant difference | neuropsychiatric effects in behavioral tests [4]: no neuropsychiatric effects were observed | inhibition at 10 µM [5]: 87.8% | blood-brain barrier penetration [6]: exceptionally low blood-brain barrier penetration
